Earlier results as cited in patent publication US20040248861A1, “Modified delta5-androstenes having improved bioavailability” (priority 2003, published 2004).

Key:
[1] = single transdermal dose of 25 mg
[2] = monkeys, very high doses (equivalent to about 70 grams/day for a human)
[3] = 200 mg/day for 28 days
flu viruses = settings: mice infected with flu viruses; to some of the viruses
[4] = supplement to diet
virus similar to HIV = settings: doses as low as 8 mg/kg/day
[5] = patients with normal adrenal function taking supplemental DHEA
[6] = not given; remark: listed apart in the source

SMILES: C[C@]12CC[C@H](O)CC1=CC(=O)[C@@H]1[C@@H]2CC[C@]2(C)C(=O)CC[C@@H]12 [7-keto-DHEA, 7-keto-dehydroepiandrosterone]
- blood levels of HDL-cholesterol [1]: improved
- salivation [2]: caused excess salivation
- safety problems in clinical trials [3]: no safety problems
- anti-viral antibodies (flu viruses): increase
- T3 thyroid stimulating hormone [4]: increased
- body fat [4]: statistically significant decreased
- bodyweight [4]: statistically significant decreased
- bodyweight (virus similar to HIV): regained bodyweight
- metabolism to estrogens or testosterone (in vivo): does not metabolize
- estradiol levels in the blood (supplementary 7-keto-DHEA): decrease
- testosterone levels in the blood (supplementary 7-keto-DHEA): decrease

SMILES: C[C@]12CC[C@H](O)CC1=CC[C@@H]1[C@@H]2CC[C@]2(C)C(=O)CC[C@@H]12 [DHEA, dehydroepiandrosterone]
- acne (share of patients) [5]: over 50%

SMILES: C[C@]12CC[C@H]3[C@@H](CCC4=CC(=O)CC[C@@]43C)[C@@H]1CC[C@@H]2O [free testosterone, testosterone]
- effect on serum levels of testosterone ([6]; oral, equivalent dose (63 mg)): no noticeable effect

SMILES: CCCCCCCCCCC(=O)O[C@H]1CC[C@H]2[C@@H]3CCC4=CC(=O)CC[C@]4(C)[C@H]3CC[C@]12C [testosterone undecanoate]
- increase in serum levels of testosterone ([6]; single oral dose of 100 mg, dissolved in oil): 2.3 fold
